Read-outs that look alike come from different tables or passages of the source.
Key:
in vitro = assay type: cell-based; conditions: human
Protocol: Serial dilutions of the test compounds in complete DMEM (without G418) were added 24 hours after seeding. Cells were allowed to proliferate for 3 days at 37°C, after which the cell number was determined by CellTiter 96 AQueous One Solution Cell Proliferation Assay (Promega Corporation).

[1] = molecular target: T1, NS3 protease wild-type (Zn^+2-free) (Hepatitis C virus genotype 1b, UniProt P26663); assay: biochemical; assay type: binding
T1 construct: The N-terminal domain from full-length NS3 protein corresponding to NS3 protease was expressed and purified; made in house
Protocol: (§1) The N-terminal domain from full-length NS3 protein corresponding to NS3 protease was expressed and purified as described elsewhere, [18].
(§2) Ligand binding to NS3 protease was determined with a high-sensitivity isothermal titration VP-ITC microcalorimeter (MicroCal, USA). Protein samples and reference solutions were properly degassed and carefully loaded into the cells to avoid bubble formation during stirring. Experiments were performed with freshly prepared buffer-exchanged protein solutions, at 25°C in 100 mM sodium acetate, 2 mM EDTA, pH 5. NS3 protease 20 µM solution in the calorimetric cell was titrated with compound 300 µM solution. Control experiments were performed under the same experimental conditions, except for the presence of zinc (no addition of EDTA). The heat evolved after each ligand injection was obtained from the integral of the calorimetric signal. The heat due to the binding reaction was obtained as the difference between the reaction heat and the corresponding heat of dilution, the latter estimated as a constant heat throughout the experiment, and included as an adjustable parameter in the analysis. The association constant (Ka) and the enthalpy change (ΔH) were obtained through non-linear regression of experimental data to a model for a protein with a single ligand binding site. Data were analyzed using software developed in our laboratory implemented in Origin 7 (OriginLab, USA).
(§3) NS3 protease wild-type, pseudo-wild-type (containing the inactivating mutation S139A) and several variants containing drug-resistance associated mutations (R155K, R155Q, A156T, and D168A) were employed for determining the impact of these mutations on the interaction of the selected compounds with the protein (change in dissociation constant).

NS3 protease S139A/D168A = molecular target: T2, NS3 protease S139A/D168A (Hepatitis C virus genotype 1b, UniProt P26663, D1194A/S1165A); assay: ITC binding to Zn^+2-free NS3 protease, S139A/D168A; conditions: 25°C, 100 mM sodium acetate, 2 mM EDTA, pH 5; relative error 15%
T2 construct: The N-terminal domain from full-length NS3 protein corresponding to NS3 protease was expressed and purified; made in house
Protocol: as §1, §2, §3

[2] = test system: genotype 1b Con1 HCV subgenomic replicons (Huh 5-2); assay: microbe, parasite or virus in culture; conditions: for EC50: Hepatitis C virus, GETYPE1B, Huh-5-2, 72 h, read-out: EC50, effective concentration 50%
Protocol: The highly permissive cell clone Huh 7-Lunet, as well as Huh 7 cells containing subgenomic HCV replicons I389luc-ubi-neo/NS3-3′/5.1 (Huh 5-2), I377NS3-3′/wt (Huh 9-13) or I389/hygro-ubi-NS3-3/5.1 (a kind gift from Dr. V. Lohmann and Dr. R. Bartenschlager) have been described recently [25]-[28]. Cells were grown in Dulbecco’s modified Eagle’s medium (DMEM; Gibco, Belgium) supplemented with 10% heat-inactivated fetal bovine serum (PAN-Biotech GmbH, Germany), 1X non-essential amino acids (Gibco), 100 IU/mL penicillin (Gibco), 100 µg/mL streptomycin (Gibco), and 250 µg/mL geneticin (G418; Gibco).
Antiviral assays for assessing the efficacy of the selected compounds were performed as described in literature [23]–[28]. Briefly, Huh 5-2 cells were seeded at a density of 5⋅10^3 cells per well in a tissue culture-treated white 96-well view plate (Techno Plastic Products AG, Switzerland) in complete DMEM supplemented with 250 µg/mL G418. […] After 3 days of incubation at 37°C cell culture medium was removed and luciferase activity was determined using the Bright-Glo™ Luciferase Assay System (Promega Corporation, The Netherlands). The luciferase signal was measured using a Synergy HT Multimode Reader (BioTek Instruments Inc, USA).

[3] = molecular target: T3, NS3 protease S139A (pseudo-wild-type) (Hepatitis C virus genotype 1b, UniProt P26663, S1165A); assay: ITC binding to Zn^+2-free NS3 protease, pseudo-wild-type S139A; conditions: 25°C, 100 mM sodium acetate, 2 mM EDTA, pH 5; relative error 15%
T3 construct: The N-terminal domain from full-length NS3 protein corresponding to NS3 protease was expressed and purified; made in house
Protocol: as §1, §2, §3

NS3 protease S139A/R155K = molecular target: T4, NS3 protease S139A/R155K (Hepatitis C virus genotype 1b, UniProt P26663, R1181K/S1165A); assay: ITC binding to Zn^+2-free NS3 protease, S139A/R155K; conditions: 25°C, 100 mM sodium acetate, 2 mM EDTA, pH 5; relative error 15%
T4 construct: The N-terminal domain from full-length NS3 protein corresponding to NS3 protease was expressed and purified; made in house
Protocol: as §1, §2, §3

NS3 protease S139A/R155Q = molecular target: T5, NS3 protease S139A/R155Q (Hepatitis C virus genotype 1b, UniProt P26663, R1181Q/S1165A); assay: ITC binding to Zn^+2-free NS3 protease, S139A/R155Q; conditions: 25°C, 100 mM sodium acetate, 2 mM EDTA, pH 5; relative error 15%
T5 construct: The N-terminal domain from full-length NS3 protein corresponding to NS3 protease was expressed and purified; made in house
Protocol: as §1, §2, §3

NS3 protease S139A/A156T = molecular target: T6, NS3 protease S139A/A156T (Hepatitis C virus genotype 1b, UniProt P26663, A1182T/S1165A); assay: ITC binding to Zn^+2-free NS3 protease, S139A/A156T; conditions: 25°C, 100 mM sodium acetate, 2 mM EDTA, pH 5; relative error 15%
T6 construct: The N-terminal domain from full-length NS3 protein corresponding to NS3 protease was expressed and purified; made in house
Protocol: as §1, §2, §3

NS3 protease [4] = conditions: read-out: apparent dissociation constant for the NS3-zinc interaction; cited from earlier work
NS3 protease [5] = conditions: read-out: dissociation constant for the NS3-zinc interaction; ITC, pH 5; cited from earlier work
NS3 protease [6] = conditions: assuming pseudo-first order association, from kobs of ref 23
NS3 protease [7] = conditions: pH 7.5; cited from earlier work
[8] = Huh 5-2 cells, 3 days proliferation, relative error 15%
[9] = ratio of CC50 to EC50 in Huh 5-2 cells

T5 sequence (P26663 1027-1208 S1165A/R1181Q): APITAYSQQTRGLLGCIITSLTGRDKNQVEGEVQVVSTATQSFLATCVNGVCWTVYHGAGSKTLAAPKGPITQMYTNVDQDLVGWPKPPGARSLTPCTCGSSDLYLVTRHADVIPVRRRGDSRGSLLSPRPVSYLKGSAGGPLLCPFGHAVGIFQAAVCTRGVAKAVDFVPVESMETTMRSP
T3 sequence (P26663 1027-1208 S1165A): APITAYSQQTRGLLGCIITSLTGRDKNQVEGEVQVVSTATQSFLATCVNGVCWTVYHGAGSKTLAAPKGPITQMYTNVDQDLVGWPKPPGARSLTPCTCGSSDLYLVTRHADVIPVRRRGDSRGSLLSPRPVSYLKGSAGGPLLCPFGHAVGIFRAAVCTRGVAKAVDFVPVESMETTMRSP
T1 sequence (P26663 1027-1208): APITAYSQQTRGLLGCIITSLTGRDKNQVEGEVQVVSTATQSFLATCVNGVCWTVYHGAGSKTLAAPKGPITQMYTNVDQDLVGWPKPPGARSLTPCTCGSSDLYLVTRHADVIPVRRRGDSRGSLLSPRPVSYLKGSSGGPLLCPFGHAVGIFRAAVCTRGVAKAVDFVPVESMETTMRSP
T4 sequence (P26663 1027-1208 S1165A/R1181K): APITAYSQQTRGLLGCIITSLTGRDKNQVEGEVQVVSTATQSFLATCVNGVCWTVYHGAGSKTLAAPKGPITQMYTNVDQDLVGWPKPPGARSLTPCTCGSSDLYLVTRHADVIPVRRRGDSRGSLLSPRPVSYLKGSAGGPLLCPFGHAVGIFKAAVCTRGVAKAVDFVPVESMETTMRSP
T2 sequence (P26663 1027-1208 S1165A/D1194A): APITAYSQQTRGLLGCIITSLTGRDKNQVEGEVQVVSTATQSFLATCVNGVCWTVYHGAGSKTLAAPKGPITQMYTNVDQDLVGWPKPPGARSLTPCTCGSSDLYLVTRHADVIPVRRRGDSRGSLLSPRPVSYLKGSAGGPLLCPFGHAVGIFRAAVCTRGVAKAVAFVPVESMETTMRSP
T6 sequence (P26663 1027-1208 S1165A/A1182T): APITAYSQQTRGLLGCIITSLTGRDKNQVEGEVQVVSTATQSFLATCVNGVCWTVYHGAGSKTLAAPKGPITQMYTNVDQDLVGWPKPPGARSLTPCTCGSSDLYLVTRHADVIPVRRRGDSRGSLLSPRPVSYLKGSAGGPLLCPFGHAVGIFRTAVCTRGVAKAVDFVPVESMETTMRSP

COC(=O)Nc1nc2ccc(C(=O)c3cccs3)cc2[nH]1 [Compound 1]
CC50 (in vitro; [8]): > 120 µM | Kd [1]: 1.9 µM | Kd (NS3 protease S139A/D168A): 2.6 µM | EC50 [2]: 0.03 µM | CC50/EC50 [2, 9]: >4000 | Kd [3]: 6.5 µM | Kd (NS3 protease S139A/R155K): 5.3 µM

CC[C@@]1(O)C(=O)OCc2c1cc1n(c2=O)Cc2cc3ccccc3nc2-1 [Compound 3]
CC50 at 3 days (in vitro; [8]): 8 µM | Kd [1]: 2.5 µM | EC50 [2]: 0.03 µM

Nc1c2c(nc3ccccc13)CCCC2 [Compound 5]
CC50 (in vitro): > 120 µM | Kd [1]: 1.7 µM | Kd (NS3 protease S139A/D168A): 8.5 µM | CC50/EC50 [2]: >2 | EC50 [2]: 60 µM | Kd (NS3 protease S139A/R155Q): 32 µM | Kd [3]: 5.5 µM | Kd (NS3 protease S139A/R155K): 5.9 µM | Kd (NS3 protease S139A/A156T): 27 µM

COC(=O)[C@H]1[C@H]2C[C@@H]3c4[nH]c5cc(OC)ccc5c4CCN3C[C@H]2C[C@@H](OC(=O)/C=C/c2cc(OC)c(OC)c(OC)c2)[C@@H]1OC [Compound 6]
CC50 (in vitro; [8]): > 120 µM | Kd [1]: 40 µM | Kd (NS3 protease S139A/D168A): 36 µM | EC50 [2]: 20 µM | CC50/EC50 [2, 9]: >6 | Kd (NS3 protease S139A/R155Q): 23 µM | Kd [3]: 24 µM | Kd (NS3 protease S139A/R155K): 61 µM | Kd (NS3 protease S139A/A156T): 45 µM

CC(=O)C1CCC2C3C=CC4=CC(=O)CCC4(C)C3CCC12C (centres unmarked) [Compound 7]
CC50 (in vitro; [8]): > 120 µM | Kd [1]: 16 µM | Kd (NS3 protease S139A/D168A): 6.5 µM | EC50 [2]: 2 µM | CC50/EC50 [2, 9]: >60 | Kd (NS3 protease S139A/R155Q): 4.2 µM | Kd [3]: 5.7 µM | Kd (NS3 protease S139A/R155K): 16 µM | Kd (NS3 protease S139A/A156T): 5.8 µM

CCOc1ccc(Cc2nccc3cc(OCC)c(OCC)cc23)cc1OCC [Compound 8]
CC50 (in vitro; [8]): 60 µM | Kd [1]: 31 µM | Kd (NS3 protease S139A/D168A): 16 µM | EC50 [2]: 4 µM | CC50/EC50 [2, 9]: 15 | Kd (NS3 protease S139A/R155Q): 42 µM | Kd [3]: 34 µM | Kd (NS3 protease S139A/R155K): 9.2 µM | Kd (NS3 protease S139A/A156T): 22 µM

zinc
Kd (NS3 protease [4]): ~1 µM | Kd (NS3 protease [5]): 0.5 µM | kon (NS3 protease [6]): < 1400 M⁻¹ s⁻¹ | apparent association rate constant, kobs (NS3 protease [7]): around 0.014 s^−1
